Experimental data reported in patent US11998767B2, “Hand sanitizers with improved aesthetics and skin-conditioning to encourage compliance with hand hygiene guidelines” (GOJO Industries, Inc., priority 2014, dated 2024).

What was measured:
ABCA12 = experiment: Skin barrier biomarker gene expression, real-time RT-PCR, keratinocyte monolayer; type: cell-based, human; conditions: gene expression level, keratinocytes treated 24 hours; Control C KGM 100%; concentration differs per example
Protocol: (§1) An in vitro model was employed, using monolayer human dermal keratinocytes culture (KGM). Two controls were tested: the medium and inflammatory cytokines interleukin (IL-1b).
(§2) Skin Barrier: • Biomarkers: ABCA12, Involucrin, PPARδ • Using different concentration of ingredients to treat the keratinocyte for 24 hours • Collect the cells and prepare total RNA from the treated cells • Using Real-time RT-PCT to detect different barrier function related biomarker's gene expression level • Comparative Benchmark: Vitamin D3 (cholecalciferol) in three different concentrations
ABCA12 is also known as ATP-binding cassette transporter 12. It is a protein that in humans is encoded by the ABCA12 gene. The ABCA12 gene is active in some types of skin cells. The ABCA12 protein appears to be essential for normal development of the skin, which provides a barrier between the body and its surrounding environment. It plays an important role in transporting lipids (free fat acids) in cells that make up the outermost layer of skin (the epidermis). Generally, the higher expression, the better skin barrier function is.

PPARδ = experiment: as above; type: cell-based, human; conditions: gene expression level, keratinocytes treated 24 hours; Control C KGM 100%; concentration differs per example
Protocol: as §1, §2
PPARδ is Peroxisome proliferator-activated receptor, also known as NR1C2. It is a nuclear receptor that in humans is encoded by the PPARD gene. […] Generally, the higher expression, the better skin barrier function is.

Involucrin = experiment: as above; type: cell-based, human; conditions: gene expression level, keratinocytes treated 24 hours; Control C KGM 100%; concentration differs per example
Protocol: as §1, §2
Involucrin is a protein component of human skin. It's a biomarker for keratinocyte differentiation. In binding the protein loricrin, involucrin contributes to the formation of a cell envelope that protects corneocytes in the skin stratum corneum. The higher expression, the better skin barrier function is.

[1] = tested on: human dermal keratinocytes; experiment: MTT assay, cell viability of PMA-treated keratinocytes; type: cell-based; conditions: co-treated with PMA, amount (wt. %) differs per example, Control A medium 100%
Excerpt: The MTT assay is a colorimetric assay for assessing cell viability, cell proliferation, and/or cytotoxicity. NAD(P)H-dependent cellular oxidoreductase enzymes may, under defined conditions, reflect the number of viable cells present. These enzymes are capable of reducing the tetrazolium dye MTT 3-(4,5-dimethylthiazol-2-yl)-2,5-diphenyltetrazolium bromide to insoluble formazan, which has a purple color. MTT assay can also be used to measure cytotoxicity (loss of viable cells) or cytostatic activity (shift from proliferative to resting status) of potential medicinal agents and toxic materials.
Controls A and B described above for the IL-8 Assay were also employed in this test. The mitigating effect of the test samples on the effect of Control B on the keratinocytes was measured. More specifically, while Control B has a negative effect on cell viability, cell proliferation, and/or cytotoxicity, this mitigation of this negative effect was determined by measuring the reduction of MTT.
The following steps were followed: Once the liquid was removed from the wells for the IL-8 Assay described above, 100 μl/well of 0.5 mg/ml of MTT in phenol red-free DMEM (cell culture medium) was added into each of the 96-well plates. After incubating 1 hour at 37° C., all liquid was removed (MTT solution) from the wells of the culture plate. Then 100 μl of DMSO was added to each well to completely dissolve the purple product. Absorption was measured using a plate reader at 550 nm wavelength.

IL-8 = IL-8 ELISA, PMA-induced IL-8 in human dermal keratinocytes; type: cell-based; conditions: niacinamide in cell culture medium, co-treated with PMA; amount (wt. %) differs per example; Control A medium 100%, Control B PMA 0.0%
Excerpt: Interleukin 8 (IL-8) is a chemokine and proinflammatory cytokine produced by macrophages and other cell types such as epithelial cells. It is secreted from keratinocytes in skin in response to inflammatory stimuli. IL-8 is secreted and is an important mediator of the immune reaction in the innate immune system response. IL-8 overexpressed is a biomarker of skin irritation. […] No irritation is expected, and therefore Control A provides a baseline. […] Decreased 11-8 expression reflects the ingredient's anti-irritation activity. In order to carry out the test method, an assay kit was employed that was obtained from R&D Systems: Human CXCL8/IL-8 Duoset ELISA Development Kit. The following steps were followed: 1. Coat EIA high binding 96-well plate with IL-8 capture antibody overnight at room temperature. 2. Prepare all reagents, standard dilutions, and samples. 3. Wash the coated plate with 350 μL/well of washing buffer 4 times, then adding 300 μL/well of blocking solution incubating 1 hour at room temperature. 4. Repeat washing step with 350 μL/well of wash buffer (4 times). 5. Add 100 μL, of Standard, control, or sample to each well. Cover with a plate sealer, and incubate at room temperature for 2 hours. 6. Aspirate each well and wash, repeating the process 3 times for a total of 4 washes. 7. Add 100 μL, of detection IL-8 antibody to each well. Cover with a new plate sealer, and incubate at room temperature for 2 hours. 8. Aspirate and wash 4 times. 9. Add 100 μL, Biotin-Strepavidin conjugate to each well, incubating 20 minutes at room temperature. 10. Aspirate and wash 4 times. 11. Add 100 μL, substrate Solution to each well. Incubate at room temperature for 20 minutes, making sure to protect the wells from the light. 12. Add 50 μL, of Stop Solution to each well. Data collected—using a colorimeter, absorbance was measured at 450 nanometers (nm) within 30 minutes. Wavelength correction was set to 570 nm.

TNF-α = TNF-α ELISA, as IL-8 method, PMA-treated human dermal keratinocytes; type: cell-based; conditions: niacinamide in cell culture medium, co-treated with PMA; amount (wt. %) differs per example; Control A medium 100%, Control B PMA 0.0%
Excerpt: For Control A, human dermal keratinocytes are left untreated. No irritation is expected, and therefore Control A provides a baseline. For Control B, IL-8 is induced in human dermal keratinocytes by applying phorbol 12-myristate 13-acetate (PMA). For all other samples, the human dermal keratinocytes are co-treated with PMA and a composition containing the ingredient of interest. Decreased 11-8 expression reflects the ingredient's anti-irritation activity.
The following steps were followed: 1. Coat EIA high binding 96-well plate with IL-8 capture antibody overnight at room temperature. 2. Prepare all reagents, standard dilutions, and samples. 3. Wash the coated plate with 350 μL/well of washing buffer 4 times, then adding 300 μL/well of blocking solution incubating 1 hour at room temperature. 4. Repeat washing step with 350 μL/well of wash buffer (4 times). 5. Add 100 μL, of Standard, control, or sample to each well. Cover with a plate sealer, and incubate at room temperature for 2 hours. 6. Aspirate each well and wash, repeating the process 3 times for a total of 4 washes. 7. Add 100 μL, of detection IL-8 antibody to each well. Cover with a new plate sealer, and incubate at room temperature for 2 hours. 8. Aspirate and wash 4 times. 9. Add 100 μL, Biotin-Strepavidin conjugate to each well, incubating 20 minutes at room temperature. 10. Aspirate and wash 4 times. 11. Add 100 μL, substrate Solution to each well. Incubate at room temperature for 20 minutes, making sure to protect the wells from the light. 12. Add 50 μL, of Stop Solution to each well. Data collected—using a colorimeter, absorbance was measured at 450 nanometers (nm) within 30 minutes. Wavelength correction was set to 570 nm.
Samples were tested similarly to the method described above, except that TNF-α was used instead of IL-8.

SMILES	ABCA12 (%) (ABCA12)	PPARδ (PPARδ)	Involucrin (Involucrin)	further results
C=C1CC[C@H](O)C/C1=C/C=C1\CCC[C@]2(C)[C@@H]([C@H](C)CCCC(C)C)CC[C@@H]12 [Comparative 1, Vitamin D3 (cholecalciferol), reference compound]	58%	752%	384%	–
C=C1CC[C@H](O)C/C1=C/C=C1\CCC[C@]2(C)[C@@H]([C@H](C)CCCC(C)C)CC[C@@H]12 [Comparative 2, Vitamin D3 (cholecalciferol), reference compound]	45%	334%	208%	–
C=C1CC[C@H](O)C/C1=C/C=C1\CCC[C@]2(C)[C@@H]([C@H](C)CCCC(C)C)CC[C@@H]12 [Comparative 3, Vitamin D3 (cholecalciferol), reference compound]	42%	238%	406%	–
CCCCCCCCCCCCCC(=O)O[C@@H]1[C@@H](C)[C@@]2(O)[C@@H](C=C(CO)C[C@]3(O)C(=O)C(C)=C[C@@H]23)[C@@H]2C(C)(C)[C@]12OC(C)=O [Control B, phorbol 12-myristate 13-acetate, reference compound]	–	–	–	Cell Viability (%) ([1]; avenanthramide series): 95%; Cell Viability (%) ([1]; niacinamide series): 95%
NC(=O)c1cccnc1 [Example 16, Niacinamide]	–	–	–	IL-8 Inhibition (%) (IL-8): 0.0%
NC(=O)c1cccnc1 [Example 17, Niacinamide]	–	–	–	IL-8 Inhibition (%) (IL-8): 16.53%
NC(=O)c1cccnc1 [Example 18, Niacinamide]	–	–	–	IL-8 Inhibition (%) (IL-8): 16.64%
NC(=O)c1cccnc1 [Example 19, Niacinamide]	–	–	–	IL-8 Inhibition (%) (IL-8): 20.86%
NC(=O)c1cccnc1 [Example 20, Niacinamide]	–	–	–	IL-8 Inhibition (%) (IL-8): 28.85%
NC(=O)c1cccnc1 [Example 21, Niacinamide]	–	–	–	IL-8 Inhibition (%) (IL-8): 33.20%
NC(=O)c1cccnc1 [Example 22, Niacinamide]	–	–	–	IL-8 Inhibition (%) (IL-8): 32.04%
NC(=O)c1cccnc1 [Example 23, Niacinamide]	–	–	–	TNF-α Inhibition (%) (TNF-α): 28.2%
NC(=O)c1cccnc1 [Example 24, Niacinamide]	–	–	–	TNF-α Inhibition (%) (TNF-α): 29.6%
NC(=O)c1cccnc1 [Example 25, Niacinamide]	–	–	–	TNF-α Inhibition (%) (TNF-α): 28.6%
NC(=O)c1cccnc1 [Example 26, Niacinamide]	–	–	–	TNF-α Inhibition (%) (TNF-α): 45.6%
NC(=O)c1cccnc1 [Example 27, Niacinamide]	–	–	–	TNF-α Inhibition (%) (TNF-α): 45.1%
NC(=O)c1cccnc1 [Example 28, Niacinamide]	–	–	–	TNF-α Inhibition (%) (TNF-α): 52.7%
NC(=O)c1cccnc1 [Example 29, Niacinamide]	–	–	–	Cell Viability (%) ([1]; niacinamide series): 97%
NC(=O)c1cccnc1 [Example 30, Niacinamide]	–	–	–	Cell Viability (%) ([1]; niacinamide series): 95%
NC(=O)c1cccnc1 [Example 31, Niacinamide]	–	–	–	Cell Viability (%) ([1]; niacinamide series): 99%
NC(=O)c1cccnc1 [Example 32, Niacinamide]	–	–	–	Cell Viability (%) ([1]; niacinamide series): 87%
NC(=O)c1cccnc1 [Example 33, Niacinamide]	41%	82%	156%	–
NC(=O)c1cccnc1 [Example 34, Niacinamide]	120%	88%	192%	–
NC(=O)c1cccnc1 [Example 35, Niacinamide]	192%	136%	441%	–
NC(=O)c1cccnc1 [Example 36, Niacinamide]	806%	164%	817%	–
NC(=O)c1cccnc1 [Example 37, Niacinamide]	447%	378%	1589%	–
NC(=O)c1cccnc1 [Example 38, Niacinamide]	499%	863%	1656%	–
